# Experimental data from ChEMBL document CHEMBL1649268, “Comparative in vitro activity profile of oritavancin against recent gram-positive clinical isolates” (2009).
# Experiments:
# Streptococcus pneumoniae [1] = assay: Antimicrobial activity against penicillin-susceptible Streptococcus pneumoniae clinical isolates by broth microdilution method; type: functional
# Streptococcus pyogenes [2] = assay: Antimicrobial activity against erythromycin-nonsusceptible Streptococcus pyogenes clinical isolates by broth microdilution method; type: functional
# [3] = system: Staphylococcus haemolyticus; assay: Antimicrobial activity against Staphylococcus haemolyticus clinical isolates assessed as resistant isolates by broth microdilution method; type: functional
# [4] = system: Staphylococcus haemolyticus; assay: Antimicrobial activity against oxacillin-resistant Staphylococcus haemolyticus clinical isolates assessed as percent susceptible isolates by broth microdilution method; type: functional
# Streptococcus pneumoniae [5] = assay: Antimicrobial activity against penicillin-resistant Streptococcus pneumoniae clinical isolates by broth microdilution method; type: functional
# [6] = system: Staphylococcus epidermidis; assay: Antimicrobial activity against oxacillin-susceptible Staphylococcus epidermidis clinical isolates by broth microdilution method; type: functional
# [7] = Antimicrobial activity against erythromycin-susceptible Streptococcus Group C clinical isolates by broth microdilution method; type: functional; conditions: Streptococcus sp. 'group C'
# Streptococcus agalactiae [8] = assay: Antimicrobial activity against erythromycin-susceptible Streptococcus agalactiae clinical isolates assessed as percent susceptible isolates by broth microdilution method; type: functional
# Streptococcus [9] = assay: Antimicrobial activity against erythromycin-susceptible Streptococcus Group F clinical isolates by broth microdilution method; type: functional
# Streptococcus agalactiae [10] = assay: Antimicrobial activity against erythromycin-nonsusceptible Streptococcus agalactiae clinical isolates by broth microdilution method; type: functional
# Streptococcus pyogenes [11] = assay: Antimicrobial activity against Streptococcus pyogenes clinical isolates assessed as percent susceptible isolates by broth microdilution method; type: functional
# [12] = system: Staphylococcus haemolyticus; assay: Antimicrobial activity against oxacillin-susceptible Staphylococcus haemolyticus clinical isolates assessed as percent susceptible isolates by broth microdilution method; type: functional
# Streptococcus agalactiae [13] = assay: Antimicrobial activity against erythromycin-susceptible Streptococcus agalactiae clinical isolates assessed as resistant isolates by broth microdilution method; type: functional
# Streptococcus pneumoniae [14] = assay: Antimicrobial activity against Streptococcus pneumoniae clinical isolates by broth microdilution method; type: functional
# Streptococcus pneumoniae [15] = assay: Antimicrobial activity against penicillin-resistant Streptococcus pneumoniae clinical isolates assessed as percent susceptible isolates by broth microdilution method; type: functional
# Streptococcus pneumoniae [16] = assay: Antimicrobial activity against penicillin-intermediate Streptococcus pneumoniae clinical isolates by broth microdilution method; type: functional
# Streptococcus pyogenes [17] = assay: Antimicrobial activity against erythromycin-susceptible Streptococcus pyogenes clinical isolates by broth microdilution method; type: functional
# [18] = system: Staphylococcus haemolyticus; assay: Antimicrobial activity against oxacillin-resistant Staphylococcus haemolyticus clinical isolates by broth microdilution method; type: functional
# Streptococcus agalactiae [19] = assay: Antimicrobial activity against Streptococcus agalactiae clinical isolates by broth microdilution method; type: functional
# [20] = Antimicrobial activity against erythromycin-susceptible Streptococcus Group C clinical isolates assessed as resistant isolates by broth microdilution method; type: functional, Streptococcus sp. 'group C'
# [21] = Antimicrobial activity against erythromycin-susceptible Streptococcus Group G clinical isolates by broth microdilution method; type: functional; conditions: Streptococcus sp. 'group G'
# Streptococcus pyogenes [22] = assay: Antimicrobial activity against Streptococcus pyogenes clinical isolates assessed as resistant isolates by broth microdilution method; type: functional
# [23] = Antimicrobial activity against erythromycin-susceptible Streptococcus Group G clinical isolates assessed as percent susceptible isolates by broth microdilution method; type: functional, Streptococcus sp. 'group G'
# [24] = Antimicrobial activity against Streptococcus Group G clinical isolates by broth microdilution method; type: functional; conditions: Streptococcus sp. 'group G'
# [25] = Antimicrobial activity against erythromycin-susceptible Streptococcus Group C clinical isolates assessed as percent susceptible isolates by broth microdilution method; type: functional, Streptococcus sp. 'group C'
# Streptococcus [26] = assay: Antimicrobial activity against Streptococcus Group F clinical isolates by broth microdilution method; type: functional
# Streptococcus pyogenes [27] = assay: Antimicrobial activity against Streptococcus pyogenes clinical isolates by broth microdilution method; type: functional
# [28] = Antimicrobial activity against erythromycin-nonsusceptible Streptococcus Group C clinical isolates by broth microdilution method; type: functional; conditions: Streptococcus sp. 'group C'
# Streptococcus pneumoniae [29] = assay: Antimicrobial activity against penicillin-intermediate Streptococcus pneumoniae clinical isolates assessed as resistant isolates by broth microdilution method; type: functional
# [30] = Antimicrobial activity against erythromycin-nonsusceptible Streptococcus Group G clinical isolates assessed as resistant isolates by broth microdilution method; type: functional, Streptococcus sp. 'group G'
# Streptococcus agalactiae [31] = assay: Antimicrobial activity against erythromycin-nonsusceptible Streptococcus agalactiae clinical isolates assessed as resistant isolates by broth microdilution method; type: functional
# [32] = Antimicrobial activity against erythromycin-susceptible Streptococcus Group G clinical isolates assessed as resistant isolates by broth microdilution method; type: functional, Streptococcus sp. 'group G'
# Streptococcus pneumoniae [33] = assay: Antimicrobial activity against penicillin-intermediate Streptococcus pneumoniae clinical isolates assessed as percent susceptible isolates by broth microdilution method; type: functional
# [34] = Antimicrobial activity against Streptococcus Group C clinical isolates by broth microdilution method; type: functional; conditions: Streptococcus sp. 'group C'
# [35] = system: Staphylococcus epidermidis; assay: Antimicrobial activity against oxacillin-resistant Staphylococcus epidermidis clinical isolates assessed as percent susceptible isolates by broth microdilution method; type: functional
# [36] = Antimicrobial activity against erythromycin-nonsusceptible Streptococcus Group C clinical isolates assessed as percent susceptible isolates by broth microdilution method; type: functional, Streptococcus sp. 'group C'
# [37] = system: Staphylococcus haemolyticus; assay: Antimicrobial activity against oxacillin-susceptible Staphylococcus haemolyticus clinical isolates by broth microdilution method; type: functional
# Streptococcus pneumoniae [38] = assay: Antimicrobial activity against penicillin-resistant Streptococcus pneumoniae clinical isolates assessed as resistant isolates by broth microdilution method; type: functional
# Streptococcus pyogenes [39] = assay: Antimicrobial activity against erythromycin-nonsusceptible Streptococcus pyogenes clinical isolates assessed as percent susceptible isolates by broth microdilution method; type: functional
# Streptococcus agalactiae [40] = assay: Antimicrobial activity against erythromycin-susceptible Streptococcus agalactiae clinical isolates by broth microdilution method; type: functional
# [41] = Antimicrobial activity against erythromycin-nonsusceptible Streptococcus Group G clinical isolates by broth microdilution method; type: functional; conditions: Streptococcus sp. 'group G'
# Streptococcus agalactiae [42] = assay: Antimicrobial activity against Streptococcus agalactiae clinical isolates assessed as resistant isolates by broth microdilution method; type: functional
# Streptococcus pneumoniae [43] = assay: Antimicrobial activity against penicillin-susceptible Streptococcus pneumoniae clinical isolates assessed as percent susceptible isolates by broth microdilution method; type: functional
# Streptococcus pneumoniae [44] = assay: Antimicrobial activity against Streptococcus pneumoniae clinical isolates assessed as percent susceptible isolates by broth microdilution method; type: functional
# Streptococcus agalactiae [45] = assay: Antimicrobial activity against Streptococcus agalactiae clinical isolates assessed as percent susceptible isolates by broth microdilution method; type: functional
# Staphylococcus aureus = assay: Antimicrobial activity against oxacillin-susceptible Staphylococcus aureus clinical isolates assessed as percent susceptible isolates by broth microdilution method; type: functional
# Streptococcus [46] = assay: Antimicrobial activity against erythromycin-nonsusceptible Streptococcus Group F clinical isolates by broth microdilution method; type: functional
# [47] = system: Staphylococcus haemolyticus; assay: Antimicrobial activity against Staphylococcus haemolyticus clinical isolates by broth microdilution method; type: functional
# [48] = system: Staphylococcus haemolyticus; assay: Antimicrobial activity against oxacillin-susceptible Staphylococcus haemolyticus clinical isolates assessed as resistant isolates by broth microdilution method; type: functional
# Streptococcus pyogenes [49] = assay: Antimicrobial activity against erythromycin-susceptible Streptococcus pyogenes clinical isolates assessed as percent susceptible isolates by broth microdilution method; type: functional
# Streptococcus agalactiae [50] = assay: Antimicrobial activity against erythromycin-nonsusceptible Streptococcus agalactiae clinical isolates assessed as percent susceptible isolates by broth microdilution method; type: functional
smiles,measurement,setting,value
CCC[C@@H]1C[C@@H](C(=O)N[C@@H]([C@H]2O[C@H](SC)[C@H](O)[C@@H](O)[C@H]2O)[C@H](C)Cl)N(C)C1 [CLINDAMYCIN],MIC90,Streptococcus pneumoniae [1],0.06 µg/mL
same,MIC90,Streptococcus pyogenes [2],> 1 µg/mL
same,Resistant isolates,[3],27.9%
same,Activity,[4],60.9%
same,MIC,Streptococcus pneumoniae [5],> 0.03 µg/mL
same,MIC90,[6],> 2 µg/mL
same,MIC90,[7],0.06 µg/mL
same,Activity,Streptococcus agalactiae [8],99%
same,MIC90,Streptococcus [9],0.06 µg/mL
same,MIC90,Streptococcus agalactiae [10],> 1 µg/mL
same,Activity,Streptococcus pyogenes [11],96%
same,Activity,[12],95.8%
same,Activity,Streptococcus agalactiae [13],1%
same,MIC90,Streptococcus pneumoniae [14],> 1 µg/mL
same,Activity,Streptococcus pneumoniae [15],45.3%
same,MIC90,Streptococcus pneumoniae [16],> 1 µg/mL
same,MIC90,Streptococcus pyogenes [17],0.06 µg/mL
same,MIC90,[18],> 4 µg/mL
same,MIC90,Streptococcus agalactiae [19],> 1 µg/mL
same,Activity,[20],0%
same,MIC90,[21],0.06 µg/mL
same,Activity,Streptococcus pyogenes [22],3.9%
same,Activity,[23],100%
same,MIC90,[24],0.06 µg/mL
same,Activity,[25],100%
same,MIC90,Streptococcus [26],0.06 µg/mL
same,MIC90,Streptococcus pyogenes [27],0.06 µg/mL
same,MIC90,[28],> 1 µg/mL
same,Percent of isolates resistant,Streptococcus pneumoniae [29],15.3%
same,Activity,[30],17.6%
same,Activity,Streptococcus agalactiae [31],57.4%
same,Activity,[32],0%
same,Activity,Streptococcus pneumoniae [33],84.7%
same,MIC90,[34],0.06 µg/mL
same,Activity,[35],56.3%
same,Activity,[36],82.4%
same,MIC90,[37],0.12 µg/mL
same,Percent of isolates resistant,Streptococcus pneumoniae [38],54.1%
same,Activity,Streptococcus pyogenes [39],71%
same,MIC90,Streptococcus agalactiae [40],0.06 µg/mL
same,MIC90,[41],> 1 µg/mL
same,Activity,Streptococcus agalactiae [42],17.6%
same,Activity,Streptococcus pneumoniae [43],97.2%
same,Activity,Streptococcus pneumoniae [44],86.9%
same,Activity,Streptococcus agalactiae [45],81.9%
same,Activity,Staphylococcus aureus,91.8%
same,MIC90,Streptococcus [46],> 1 µg/mL
same,MIC90,[47],> 2 µg/mL
same,Activity,[48],2.8%
same,Activity,Streptococcus pyogenes [49],100%
same,Activity,Streptococcus agalactiae [50],41%
